Legend:
[1] = target: T1, membrane receptors of rat pituitary (Rattus norvegicus, UniProt P30969); test: Receptor binding to rat pituitary membranes with 125I-labeled [D-Trp6]LHRH; settings: high affinity binding sites, pituitary of male rats, ¹²⁵l-labeled [D-Trp⁶]LHRH
T1 construct: membrane receptors of rat pituitary; from tissue; host or cells: rat pituitary membranes
T1 sequence (P30969 1-327): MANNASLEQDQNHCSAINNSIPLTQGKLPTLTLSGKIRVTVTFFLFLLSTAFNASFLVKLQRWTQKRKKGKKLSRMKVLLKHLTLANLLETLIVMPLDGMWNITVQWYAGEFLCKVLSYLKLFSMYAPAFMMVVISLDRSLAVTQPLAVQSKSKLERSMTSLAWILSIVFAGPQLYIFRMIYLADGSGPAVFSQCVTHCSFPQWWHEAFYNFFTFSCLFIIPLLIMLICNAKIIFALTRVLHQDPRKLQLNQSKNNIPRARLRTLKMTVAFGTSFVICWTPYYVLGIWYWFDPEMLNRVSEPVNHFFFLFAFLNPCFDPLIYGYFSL
Experimental: (§1) This is determined by using labelled LHRH and [D-Trp⁶]LHRH. The assay is carried out similarly to that described by T. Kadar et al., Proc. Natl. Acad. Sci. USA, 85, 890-894 (1988).
(§2) Table 2 presents the antiovulatory activity of the claimed compounds having LHRH-inhibiting properties. The inhibitory action was determined in vivo, in 4-day cycling rats as described [A. Corbin and C. W. Beattie, Endocr. Res. Commun., 2, 1-23 (1975)]. Affinities of the claimed compounds to membrane receptors of rat pituitary and human breast cancer cells are also given in Tables 1 and 2 as determined by using [[…],D-Trp⁶]LHRH.

[2] = tested on: 4-day cycling rats; test: In vivo antiovulatory activity in 4-day cycling rats; settings: 4-day cyclic rats
Experimental: This activity of the peptides is determined in 4-day-cycling rats as described [A. Corbin and C. W.Beattie, Endocr. Res. Commun. 2, 1-23(1975)].
as §2

[3] = target: T2, membrane receptors of human breast cancer cells (Homo sapiens, UniProt P30968); test: Receptor binding to human breast cancer cell membranes with 125I-labeled [D-Trp6]LHRH; settings: high affinity binding sites, ¹²⁵l-labeled [D-Trp⁶]LHRH
T2 construct: human prostate and breast cancer cell membranes; endogenous in cells
T2 sequence (P30968 1-328): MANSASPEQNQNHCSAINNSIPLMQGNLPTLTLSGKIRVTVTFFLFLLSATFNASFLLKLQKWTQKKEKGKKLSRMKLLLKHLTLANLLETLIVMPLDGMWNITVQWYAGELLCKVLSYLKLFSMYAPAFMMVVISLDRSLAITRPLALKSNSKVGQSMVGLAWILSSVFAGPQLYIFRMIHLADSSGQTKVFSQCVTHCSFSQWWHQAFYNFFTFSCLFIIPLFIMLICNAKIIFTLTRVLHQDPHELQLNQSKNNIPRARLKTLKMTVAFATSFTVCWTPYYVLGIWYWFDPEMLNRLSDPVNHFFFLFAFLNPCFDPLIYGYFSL
Experimental: (c)Affinity for peptides to human prostate and breast cancer cell membranes.
as §1, §2

[4] = tested on: dispersed rat pituitary cell superfusion system; test: LH release in dispersed rat pituitary cell superfusion system (LHRH agonistic activity); type: cell-based; settings: peptide infused for 3 minutes at various concentration; LH released compared to that released by 3 nM LHRH
Experimental: The ability of compounds to influence LH release in vitro is assayed by using a superfused rat pituitary cell system [S. Vigh and A. V. Schally, Peptides, 5 Suppl.
The peptide was infused for 3 minutes at various concentration, and the amount of LH released was compared to that released by 3 nM LHRH.

[5] = Table 2, antagonistic analogues

Binding affinity, Ka1, for membrane receptors of pituitary [1, 5] [nM-¹] | Binding affinity, Ka1, for membrane receptors of cancer cells [3, 5] [nM-¹] | Binding affinity, Ka1, for membrane receptors of pituitary ([1]; Table 1, agonistic analogues) [nM⁻¹] | Binding affinity, Ka1, for membrane receptors of cancer cells ([3]; Table 1, agonistic analogues) [nM⁻¹] | Substance | Hormonal activity* %Blockade of ovulation ([2]; Dose 3 µg/rat) [%] | Hormonal activity* %Blockade of ovulation ([2]; Dose 10 µg/rat) [%] | Hormonal activity* LH responses rel. to LHRH (= 1) [4]
 | 0.192 |  |  | Ac-D-Nal(2)-D-Phe(4Cl)-D-Pal(3)-Ser-Arg-D-Lys[(Cu⁺⁺)(SAL)₂(A₂bu-Eac)]-Leu-Arg-Pro-D-Ala-NH₂ [XXVIII] |  |  | 
 | 2.152 |  |  | Ac-D-Nal(2)-D-Phe(4Cl)-D-Pal(3)-Ser-Arg-D-Lys[(PtCl₂)-A₂bu-Eac)]-Leu-Arg-Pro-D-Ala-NH₂ [XXVII] |  |  | 
1.821 | 0.878 |  |  | Ac-D-Nal(2)D-Phe(4Cl)-D-Pal(3)-Ser-Arg-D-Lys[(Ni⁺⁺)(SAL)₂(DL-A₂pr)]-Leu-Arg-Pro-D-Ala-NH₂ [XIII] |  |  | 
 |  | 4.513 | 2.236 | pGlu-His-Trp-Ser-Tyr-D-Lys [(Ni⁺⁺)(CISAL)₂(D-A₂pr)]-Leu-Arg-Pro-Gly-NH₂ [Example X] |  |  | 4

Further lines, the substance ahead of its results:

Substance | Binding affinity, Ka1, for membrane receptors of pituitary [1, 5] [nM-¹] | Binding affinity, Ka1, for membrane receptors of cancer cells [3, 5] [nM-¹] | Binding affinity, Ka1, for membrane receptors of pituitary ([1]; Table 1, agonistic analogues) [nM⁻¹] | Binding affinity, Ka1, for membrane receptors of cancer cells ([3]; Table 1, agonistic analogues) [nM⁻¹] | Hormonal activity* %Blockade of ovulation ([2]; Dose 3 µg/rat) [%] | Hormonal activity* %Blockade of ovulation ([2]; Dose 10 µg/rat) [%] | Hormonal activity* LH responses rel. to LHRH (= 1) [4]
Ac-D-Nal(2)-D-Phe(4Cl)-D-Pal(3)-Ser-Arg-D-Lys[(Cu⁺⁺)(POL)₂(DL-A₂pr)]-Leu-Arg-Pro-D-Ala-NH₂ [XXIV] | 5.483 | 2.628 |  |  | 50 |  | 
Ac-D-Nal(2)-D-Phe(4Cl)-D-Pal(3)-Ser-Arg-D-Lys[(Cu⁺⁺)(POLP)₂(DL-A₂pr)]-Leu-Arg-Pro-D-Ala-NH₂ [Example XX] | 5.250 | 2.436 |  |  | 80 |  | 
Ac-D-Nal(2)-D-Phe(4Cl)-D-Trp-Ser-Arg-D-Lys[(Cu⁺⁺) (POL)₂(DL-A₂pr)]-Leu-Arg-Pro-D-Ala-NH₂ [Example XXIII] | 7.622 | 3.408 |  |  |  | 40 | 
pGlu-His-Trp-Ser-Tyr-D-Lys[(Cu²²)(CISAL)₂(DL-A₂pr)]-Leu-Arg-Pro-Gly-NH₂ [Example IX] |  |  | 8.625 | 3.995 |  |  | 10
pGlu-His-Trp-Ser-Tyr-D-Lys[(Cu⁺⁺)(FUR)₂(DL-A₂pr)]-Leu-Arg-Pro-Gly-NH₂ [XVII] |  |  | 1.770 | 0.536 |  |  | 10
pGlu-His-Trp-Ser-Tyr-D-Lys[(Cu⁺⁺)(PEN) ₂(A₂pr)]-Leu-Arg-Pro-Gly-NH₂ [Example XXI] |  |  | 10.989 | 5.096 |  |  | 10.6
